Patent US8183364B2, “Substituted porphyrins” (Duke University, priority 2004, dated 2012)

Assay: Electrochemistry: cyclic voltammetry of the Mn(III)/Mn(II) redox couple
Format: physicochemical
Details: for Metal-centered redox potential E1/2: Mn(III)/Mn(II), 0.1 M NaCl, 0.05 M phosphate buffer, pH 7.8, ±3 mV

COCCn1cc[n+](CCOC)c1-c1c2nc(c(-c3n(CCOC)cc[n+]3CCOC)c3ccc([n-]3)c(-c3n(CCOC)cc[n+]3CCOC)c3nc(c(-c4n(CCOC)cc[n+]4CCOC)c4ccc1[n-]4)C=C3)C=C2.[Mn+3] [MnTDMOE-2-ImP^5+, Mn(III) tetrakis 5,10,15,20-tetrakis[N,N′-di(2-methoxyethyl)imidazolium-2-yl]porphyrin]
Metal-centered redox potential E1/2: +365 mV vs NHE

COCC[n+]1ccccc1-c1c2nc(c(-c3cccc[n+]3CCOC)c3ccc([n-]3)c(-c3cccc[n+]3CCOC)c3nc(c(-c4cccc[n+]4CCOC)c4ccc1[n-]4)C=C3)C=C2.[Mn+3] [MnTMOE-2-PyP^5+, Mn(III) tetrakis 5,10,15,20-tetrakis[N-(2-methoxyethyl)pyridinium-2-yl]porphyrin]
Metal-centered redox potential E1/2: +251 mV vs NHE
E1/2 more positive / higher than that of MnTE-2-PyP^5+ (difference vs MnTE-2-PyP^5+ (+228 mV vs NHE)): 23 mV
